Results published in US5204361A, “Method for treating laminitis in equine livestock” (priority 1988, dated 1993).

Tests used:
Type in all cases: cell-based, horse
[1] = test system: caecal and large colon contents; test: Experiment 2 Part 3: in vitro screening at 2 ug/ml in digesta of four horses; conditions: for pH / L-lactate: 2 ug antibiotic/ml, 15 mg cornstarch/ml, 20 hour incubation
Method: (§1) Digesta was taken from the caecum and large colon from recently slaughtered animals and was filtered through nylon gauze (approximately 60 micron apertures). The fluid was diluted 1:1 with a buffer solution described by Bales et al. (1976) and incubated with wheat "corn starch" (with or without antibiotics) at 37° for 16 to 20 hours. Aliquots of digesta diluted with buffer (50 ml) were added to 100 ml conical flasks. The flasks were flushed with carbon dioxide before being sealed with a tightly fitting rubber cap. A 21 gauge needle was inserted through the rubber seal in order to allow gas to escape during the fermentation. On removal from the incubator sub-samples were immediately taken to measure L-lactic acid concentration and pH. For each treatment or level of antibiotic three replicate incubation flasks were used.
All four of the antibiotics, listed above, were incubated as previously described to provide 2 ug antibiotic and 15 mg cornstarch per ml incubation mixture. There was one flask per test and each antibiotic was incubated in digesta from both the caecum and the large colon taken from each of 4 animals. Samples of incubation fluid were taken following a 20 hour incubation and were analysed for L-lactate and pH.

[2] = test system: caecal/large colon digesta; test: Experiment 2 Part 5: efficacy of tylosin relative to virginiamycin, digesta incubated with glucose; conditions: antibiotic 1.00 μg/ml, 37°, 20 hours, mean
[3] = test system: caecal/large colon digesta; test: Experiment 2 Part 6: therapeutic use, virginiamycin added after the start of fermentation; conditions: virginiamycin 10 ug/ml added at 4, 8 or 12 h; total 24 h; FIG. 6
Method: An in vitro experiment was conducted to determine whether by adding the virginiamycin after the start of fermentation of caecal digesta and glucose subsequent lactic acid production could still be prevented.
Samples of caecal/large colon digesta were prepared as described above (Part 5) but with the following treatments (3 replicates/treatment):
(a) Control--incubated for 24 h;
(b) Sampled after 4 h and virginiamycin added before incubating for a total of 24 h;
(c) As for (b) but with sampling etc at 8 h; and
(d) As for (b) but sampling etc after 12 h. Virginiamycin was added to provide 10 ug/ml.

[4] = test system: mixed caecal/large colon digesta; test: Experiment 2 Part 1: in vitro fermentation of digesta with cornstarch, avoparcin, virginiamycin, flavomycin 2-32 ug/ml; design: Lactate / Total VFA: unit not given here; conditions: for pH / Acet:Prop / Lactate / Total VFA: mean
Method: as §1
A range of concentrations of cornstarch providing: 0, 5, 10, 15 and 20 mg/ml diluted digesta (i.e. from 0 to 1 g cornstarch/conical flask) were tested to determine the amount required to produce a pattern of fermentation with high levels of lactic acid. Flasks were also prepared with cornstarch mixed with antibiotic premixes to provide 15 mg cornstarch/ml incubation mixture and 0, 2, 4, 8, 16 and 32 ug of avoparcin, virginiamycin or flavomycin per ml incubation mixture. After approximately 16 hour incubation at 37° samples were taken to measure lactic acid, VFA and pH.

[5] = test system: caecal/large colon digesta; test: Experiment 2 Part 2: in vitro fermentation with cornstarch, antibiotics at or below 2 ug/ml; conditions: for L-lactate / pH: cornstarch 0.75 g per flask, 16 hours, mean
Method: as §1
Incubation flasks were set up as described above with cornstarch (0.75 g) containing virginiamycin, flavomycin or zinc-bacitracin a levels to provide: 0, 0.25, 0.5, 1.0 and 2 ug antibiotic/ml incubation mixture. These flasks were incubated for 16 hours. Flasks were also set up with 0.75 g cornstarch and no antibiotic equipped with a tap and sampling tube in order to take samples from the incubation vessels at various times during the fermentation. Samples were taken at the start of the incubation and at 2, 4, 6, 8, 12 and 24 h. These were analysed for L-lactate concentration and pH.

[6] = antibiotic 2 μg/ml, cornstarch 15 mg/ml, approx 16 hour incubation
[7] = antibiotic 4 μg/ml, cornstarch 15 mg/ml, approx 16 hour incubation
[8] = antibiotic 8 μg/ml, cornstarch 15 mg/ml, approx 16 hour incubation
[9] = antibiotic 16 μg/ml, cornstarch 15 mg/ml, approx 16 hour incubation
[10] = antibiotic 32 μg/ml, cornstarch 15 mg/ml, approx 16 hour incubation

Substance virginiamycin has a pH ([1]; Horse 1) of 5.40, a L-lactate ([1]; Horse 1, mean of caecum and large colon) of 0.3 mmol/L and a pH ([1]; Horse 2) of 4.94. It also gave a L-lactate ([1]; Horse 2, mean of caecum and large colon) of 34.1 mmol/L, a pH ([1]; Horse 3) of 5.17 and a L-lactate ([1]; Horse 3, mean of caecum and large colon) of 7.6 mmol/L. The pH ([1]; Horse 4) was 5.27, the L-lactate ([1]; Horse 4, mean of caecum and large colon) was 12.3 mmol/L and the L-lactate ([1]; Mean of 4 horses) was 13.6 mmol/L. The pH ([1]; Mean of 4 horses) was 5.19, the “pH of the incubation fluid relative to unmedicated control” value ([1]; all horses, 2 ug/ml, p,0.01) was “significant increase” and the “L-lactate concentration relative to unmedicated control” value ([1]; all horses, 2 ug/ml, p<0.001) was “significant reduction”. The L-lactate [2] was 9.3 mmol/L, the “time after the start of glucose fermentation at which addition of virginiamycin still prevents the build up of lactic acid” value [3] was “up to 8 h” and the “control of lactic acid build up” value ([4]; Experiment 2 screening programme as a whole) was “consistent and effective control”. For the same substance, the pH ([4]; antibiotic 2 μg/ml, cornstarch 15 mg/ml, approx 16 hour incubation at 37°) was 6.57, the “Acet:Prop” value [4, 6] was 2.9 and the Lactate [4, 6] was 0.2. The “Total VFA” value [4, 6] was 93.2, the “Acet:Prop” value [4, 7] was 3.1 and the Lactate [4, 7] was 0.2. For the same substance, the “Total VFA” value [4, 7] was 80.8, the pH [4, 7] was 6.63 and the “Acet:Prop” value [4, 8] was 3.2. The Lactate [4, 8] was 0.2, the “Total VFA” value [4, 8] was 79.7 and the pH [4, 8] was 6.66. The “Acet:Prop” value [4, 9] was 3.8, the Lactate [4, 9] was 0.0 and the “Total VFA” value [4, 9] was 71.3. The pH [4, 9] was 6.64, the “Acet:Prop” value [4, 10] was 3.7 and the Lactate [4, 10] was 0.1. The “Total VFA” value [4, 10] was 87.1, the pH [4, 10] was 6.66 and the “control of lactic acid build-up” value ([4]; at concentrations as low as 2 g/ml, cornstarch 15 mg/ml) was “total control”. For the same substance, the L-lactate ([5]; antibiotic 0.25 μg/ml) was 28.4 mmol/L, the pH ([5]; antibiotic 0.25 μg/ml) was 5.45 and the L-lactate ([5]; antibiotic 0.50 μg/ml) was 28.8 mmol/L. For the same substance, the pH ([5]; antibiotic 0.50 μg/ml) was 5.44, the L-lactate ([5]; antibiotic 1.00 μg/ml) was 3.2 mmol/L and the pH ([5]; antibiotic 1.00 μg/ml) was 5.66. For the same substance, the L-lactate ([5]; antibiotic 2.00 μg/ml) was 1.4 mmol/L, the pH ([5]; antibiotic 2.00 μg/ml) was 5.78 and the “control of lactic acid compared with the other antibiotics” value ([5]; at concentrations of 1 ug/ml) was “best control of lactic acid”.
